Results: US10251395B2, “Substituted furano-/thienocycloalkylamino-2-pyrimidine derivatives and use thereof for controlling undesired plant growth” (Bayer CropScience Aktiengesellschaft, priority 2015, dated 2019)

How the values were obtained:
Amaranthus retroflexus [1] = test: Post-emergence herbicidal effect; assay type: in vivo; settings: assessed visually after about 3 weeks vs untreated controls
Method in brief: (§1)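 Visual % damage vs untreated plants, ~3 wk after spraying (100% = dead, 0% = as control). Post-emergence foliar spray at one-leaf stage; WP/EC in water, 600–800 L/ha + 0.2% wetting agent; sandy loam, greenhouse.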

Viola tricolor [2] = test: Post-emergence herbicidal effect; assay type: in vivo; settings: assessed visually after about 3 weeks vs untreated controls
Method in brief: as §1

logP (HCOOH) = assay type: physicochemical; settings: HCOOH
Description: Table 2 (physicochemical characterization of selected synthesis examples)

Polygonum convolvulus = test: Pre-emergence herbicidal effect; assay type: in vivo; settings: scored visually after 3 weeks
Method in brief: (§2)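 Seeds sown in sandy loam in wood-fiber pots and covered with soil; WP or EC formulations applied to the soil surface as aqueous suspension or emulsion at 600 to 800 L/ha water with 0.2% wetting agent. Greenhouse, 3 weeks; damage scored visually versus untreated controls (100% = plants died, 0% = like control).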

Veronica persica [3] = test: Pre-emergence herbicidal effect; assay type: in vivo; settings: scored visually after 3 weeks
Method in brief: as §2

Stellaria media [4] = test: Pre-emergence herbicidal effect; assay type: in vivo; settings: scored visually after 3 weeks
Method in brief: as §2

Amaranthus retroflexus [5] = test: Pre-emergence herbicidal effect; assay type: in vivo; settings: scored visually after 3 weeks
Method in brief: as §2

Viola tricolor [6] = test: Pre-emergence herbicidal effect; assay type: in vivo; settings: scored visually after 3 weeks
Method in brief: as §2

Matricaria inodora = test: Pre-emergence herbicidal effect; assay type: in vivo; settings: scored visually after 3 weeks
Method in brief: as §2

Veronica persica [7] = test: Post-emergence herbicidal effect; assay type: in vivo; settings: assessed visually after about 3 weeks vs untreated controls
Method in brief: as §1

Stellaria media [8] = test: Post-emergence herbicidal effect; assay type: in vivo; settings: assessed visually after about 3 weeks vs untreated controls
Method in brief: as §1

Echinochloa crus-galli [9] = test: Post-emergence herbicidal effect; assay type: in vivo; settings: 320 g/ha, assessed visually after about 3 weeks vs untreated controls
Method in brief: as §1

Ipomoea purpurea = test: Post-emergence herbicidal effect; assay type: in vivo; settings: 320 g/ha, assessed visually after about 3 weeks vs untreated controls
Method in brief: as §1

Echinochloa crus-galli [10] = test: Pre-emergence herbicidal effect; assay type: in vivo; settings: scored visually after 3 weeks
Method in brief: as §2

Setaria viridis = test: Pre-emergence herbicidal effect; assay type: in vivo; settings: scored visually after 3 weeks
Method in brief: as §2

Abutilon theophrasti = test: Pre-emergence herbicidal effect; assay type: in vivo; settings: Dosage 320 g/ha, scored visually after 3 weeks
Method in brief: as §2

Alopecurus myosuroides = test: Pre-emergence herbicidal effect; assay type: in vivo; settings: Dosage 320 g/ha, scored visually after 3 weeks
Method in brief: as §2

SMILES | post-emergence efficacy AMARE (Amaranthus retroflexus [1]; 320 g/ha) [%] | post-emergence efficacy VIOTR (Viola tricolor [2]; 320 g/ha) [%] | logP (HCOOH) (logP (HCOOH)) | POLCO pre-emergence efficacy (herbicidal activity) (Polygonum convolvulus; Dosage 320 g/ha) [%] | VERPE pre-emergence efficacy (herbicidal activity) (Veronica persica [3]; Dosage 320 g/ha) [%] | STEME pre-emergence efficacy (herbicidal activity) (Stellaria media [4]; Dosage 320 g/ha) [%] | AMARE pre-emergence efficacy (herbicidal activity) (Amaranthus retroflexus [5]; Dosage 320 g/ha) [%] | VIOTR pre-emergence efficacy (herbicidal activity) (Viola tricolor [6]; Dosage 320 g/ha) [%] | MATIN pre-emergence efficacy (herbicidal activity) (Matricaria inodora; Dosage 320 g/ha) [%] | post-emergence efficacy VERPE (Veronica persica [7]; 320 g/ha) [%] | post-emergence efficacy STEME (Stellaria media [8]; 320 g/ha) [%] | post-emergence efficacy VIOTR (Viola tricolor [2]; 80 g/ha) [%] | VERPE pre-emergence efficacy (herbicidal activity) (Veronica persica [3]; Dosage 80 g/ha) [%] | STEME pre-emergence efficacy (herbicidal activity) (Stellaria media [4]; Dosage 80 g/ha) [%] | AMARE pre-emergence efficacy (herbicidal activity) (Amaranthus retroflexus [5]; Dosage 80 g/ha) [%] | VIOTR pre-emergence efficacy (herbicidal activity) (Viola tricolor [6]; Dosage 80 g/ha) [%] | MATIN pre-emergence efficacy (herbicidal activity) (Matricaria inodora; Dosage 80 g/ha) [%] | SETVI pre-emergence efficacy (herbicidal activity) (Setaria viridis; Dosage 320 g/ha) [%] | further results
Cc1cc2c(s1)CCCC2Nc1nc(N)c([S+](C)[O-])c(C(F)(F)F)n1 (racemic) [compound 35] | 80 | 90 | oily; logP (HCOOH): 3.44; 1H NMR (CDCl3, 400 MHZ, δ in ppm): 1.85 (m, 3H, 3H of | 90 | 90 | 100 | 90 | 100 | 90 |  |  |  |  |  |  |  |  |  | 
Nc1nc(NC2CCCc3sccc32)ncc1S(=O)(=O)C1CC1 (racemic) [compound 36] |  | 100 | solid; m.p.: 243.3° C.; logP (HCOOH): 2.12; 1H NMR (CDCl3, 400 MHZ, δ in ppm): |  | 100 | 100 | 100 | 100 | 100 | 80 | 80 | 100 | 90 | 100 | 100 | 100 | 100 |  | 
CS(=O)(=O)c1cnc(NC2CCCc3sc(Cl)cc32)nc1N (racemic) [compound 42] | 90 | 100 | oily; logP (HCOOH): 2.33; 1H NMR (CDCl3, 400 MHZ, δ in ppm): 1.80 (m, 1H, 1H of | 80 | 100 | 100 | 100 | 100 | 100 | 100 | 100 | 90 | 100 | 100 | 100 | 100 | 100 | 100 | post-emergence efficacy ECHCG (Echinochloa crus-galli [9]): 100%; post-emergence efficacy VERPE (Veronica persica [7]; 80 g/ha): 90%; post-emergence efficacy STEME (Stellaria media [8]; 80 g/ha): 90%; post-emergence efficacy PHBPU (Ipomoea purpurea): 80%; ECHCG pre-emergence efficacy (herbicidal activity) (Echinochloa crus-galli [10]; Dosage 80 g/ha): 100%; ECHCG pre-emergence efficacy (herbicidal activity) (Echinochloa crus-galli [10]; Dosage 320 g/ha): 100%; SETVI pre-emergence efficacy (herbicidal activity) (Setaria viridis; Dosage 80 g/ha): 100%; ABUTH pre-emergence efficacy (herbicidal activity) (Abutilon theophrasti): 100%
Cc1cc2c(s1)CCC2Nc1ncc(S(=O)(=O)C(C)C)c(N)n1 (racemic) [compound 63] | 40 | 90 | solid; logP (HCOOH): 2.40; 1H NMR (CDCl3, 400 MHZ, δ in ppm): 1.35 (d, 6H, 6H | 100 |  | 100 |  | 100 | 100 |  |  | 90 |  | 100 |  | 100 | 100 | 100 | post-emergence efficacy AMARE (Amaranthus retroflexus [1]; 80 g/ha): 10%; POLCO pre-emergence efficacy (herbicidal activity) (Polygonum convolvulus; Dosage 80 g/ha): 20%; ALOMY pre-emergence efficacy (herbicidal activity) (Alopecurus myosuroides): 100%
